What all share (format): cell-based, Suberites domuncula
The subject of series [1] is primmorphs from S. domuncula. The series can be described thus: DNA synthesis in primmorphs by BrdU labelling. The note with it: for percentage share of BrdU-positive cells (change in words): after addition as nutrient. How it is done: In order to determine the cell proliferation, the integration of BrdU [5-bromo-2′-deoxy-uridine] into the cellular DNA was measured using the “BrdU-iabeling and detection kit”, in accordance with the manufacturer's instructions.
For this purpose, the primmorphs are incubated, usually in 1 ml of the seawater/antibiotic solution, which also contains the BrdU labelling solution [final dilution: usually 1:1,000 (10 μM of BrdU)]. The incubation period is usually 12 hours; the incubation itself is carried out in culture chambers [e.g. the “culture chamber slides (Nunc)”—catalogue number 177453]. Subsequently, the cells are dissociated in CFMSW-E, washed three times in CFMSW-E and fixed/denatured in 70% ethanol [pH 2.0]. After that, the cells are incubated with anti-BrdU mouse monoclonal antibodies and the immune complex is made visible with anti-mouse Ig coupled to alkaline phosphatase and with the dye substrate nitro-blue tetrazolium salt. The cells are analysed under a light-optical microscope.
The primary primmorphs were obtained from individual cells from S. domuncula and used for the experiments after 21 days.
For this reason, the influence of a phorbol ester, phorbol 12-inyristate 13-acetate (PMA), on the percentage of BrdU-positive cells in primmorphs from S. domuncula was determined. The primmorphs were incubated for two days with different concentrations of PMA. After that, the DNA synthesis was determined by means of BrdU labelling as described above. The control, percentage of BrdU-positive cells in primmorphs without the test substance, was set at 100%.
FIG. 5. Influence of the phorbol ester phorbol 12-myristate 13-acetate (PMA) on the percentage share of BrdU-positive cells in primmorphs from S. domuncula. The primmorphs were incubated for two days with different concentrations of PMA. After this, DNA synthesis was determined by means of BrdU labelling. The control, percentage share of BrdU-positive cells among primmorphs without the test substance, was set at 100%. 300 cells were counted per batch.
FIG. 6. Influence of cadmium, concentrations between 0.1 ng/ml and 100 ng/ml were chosen, on the amount of the percentage share of BrdU-positive cells among primmorphs.
Background: Incorporation of labelled thymidine or its analogues reports DNA synthesis.

Series [2] has as its system primmorphs from S. domuncula. The series can be described thus: Size (diameter) of primmorphs after addition of nutrients. Conditions: after addition as nutrient.
The test system of series [3] is primmorphs from S. domuncula. Kind of series: Proliferation of cells in primmorphs (parallel batches, BrdU-positive binuclear stages). The note with it: 0.01 to 1 μg PMA/ml. The procedure:
In order to determine whether the cells do in fact divide after the DNA synthesis, the same batches were analysed which were also used to detect the incorporation of BrdU into cells from the primmorphs of S. domuncula. Those cells which were positive for BrdU and which were still in the binuclear stage after undergoing mitosis were counted.
In line with the above comments, it was also examined in parallel batches whether any change in proliferation occurred after incubation with the agent used here.

In the case of phosphatidyl serine, the “percentage share of BrdU-positive cells (change in words)” value in series [1] is reported as “rise”. Further, the “size of the primmorphs (change in words)” value in series [2] is listed as “increase”.
`CCCCCCCCCCCCCC(=O)O[C@@H]1[C@@H](C)[C@@]2(O)[C@@H](C=C(CO)C[C@]3(O)C(=O)C(C)=C[C@@H]23)[C@@H]2C(C)(C)[C@]12OC(C)=O` [PMA, phorbol 12-myristate 13-acetate]: the “percentage of BrdU-positive cells in primmorphs” value in series [1] (0.01 to 1 μg PMA/ml, incubated for two days, control without test substance set at 100%) is on record as “distinct percentage increase”. Further, the “proliferation of cells in primmorphs” value in series [3] is “increase”.
For the molecule phosphatidylinositol, the “percentage share of BrdU-positive cells (change in words)” value in series [1] is recorded as “rise”. For the same molecule, the “size of the primmorphs (change in words)” value in series [2] was “increase”.
As to `[Cd]` [cadmium], in series [1] (cadmium at a concentration of 1 ng/ml and more, single exposure), the “percentage of BrdU-positive cells in primmorphs” value is listed as “decline”.

The record behind these values is US6664106B1, “Production of primmorphs from disassociated cells of sponges and corals” (priority 1998, dated 2003).
